Here are results for three compounds from ChEMBL document CHEMBL1138998, “A topological function based on spectral moments for predicting affinity toward A3 adenosine receptors” (Bioorg Med Chem Lett, 2006).

Structures are written as SMILES.

In the test the target is T1, Adenosine receptor A3 (Rattus norvegicus, UniProt P28647).
T1 sequence (P28647 whole entry): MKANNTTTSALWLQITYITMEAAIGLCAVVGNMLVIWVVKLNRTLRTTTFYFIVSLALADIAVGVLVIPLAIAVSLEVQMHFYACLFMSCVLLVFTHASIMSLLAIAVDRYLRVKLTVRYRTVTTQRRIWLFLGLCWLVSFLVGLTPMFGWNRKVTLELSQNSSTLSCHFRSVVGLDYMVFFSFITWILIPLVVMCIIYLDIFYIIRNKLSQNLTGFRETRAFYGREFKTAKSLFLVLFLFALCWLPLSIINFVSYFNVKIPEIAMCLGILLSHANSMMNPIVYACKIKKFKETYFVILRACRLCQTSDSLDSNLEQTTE
As to the kind of experiment: Displacement of [125I]AB-MECA from rat adenosine A3 receptor expressed in CHO cells. The test is classed as cell-based. On the technique in general: Displacement assays read how much labelled ligand stays bound in the presence of the test substance.
As a reminder, the Ki is a dissociation constant, usually derived from enzyme kinetics or from competition with a known ligand. Lower therefore signals tighter binding. The compound `CCNC(=O)[C@H]1O[C@@H](n2cnc3c(NC(=O)Nc4ccc(S(=O)(=O)Nc5cc(C)on5)cc4)ncnc32)[C@H](O)[C@@H]1O` registered an inhibition constant (Ki) of 155 nM.
Turning to `CCNC(=O)[C@H]1O[C@@H](n2cnc3c(NC(=O)Nc4ccc(S(=O)(=O)Nc5ccccn5)cc4)ncnc32)[C@H](O)[C@@H]1O`, the Ki was 54.1 nM.
The figure for `CCNC(=O)[C@H]1O[C@@H](n2cnc3c(NC(=O)Nc4ccc(S(=O)(=O)Nc5ncccn5)cc4)ncnc32)[C@H](O)[C@@H]1O` is 405 nM.
